The source of these data is US6221914A, “Sulfonamide bridging compounds that inhibit tryptase activity” (Array Biopharma Inc., priority 1998, dated 2001).

Where only a bound is given, the exact number is not on record here.

Type in all cases: biochemical
For one test, the target named is T1, Human plasma plasmin (Homo sapiens, UniProt P00747).
T1 construct: from tissue; host or cells: human plasma
The test is described as follows: Ki determination, human plasma plasmin (Tosyl-Gly-Pro-Lys-pNA). The following applies: 100 mM Tris-HCl, pH 7.4, 100 mM NaCl, 0.05% Triton X-100; read-out: Experimentally Determined Ki, Plasmin. As to the method:
(§1) Protease inhibition was assayed according to published procedures with minor modifications using various proteases and specific chromogenic peptide p-nitroanilide substrates. Assays were performed in Costar ultra-low cluster 96-well microtiter plate (Costar Corning Corp., Cambridge Mass.). Each protease was incubated with various concentrations of the test compound for 15 min. at 37° C. or as otherwise indicated, in specific assay buffer, and the residual activity was then measured by addition of the substrate. p-Nitroaniline produced by the proteolysis was determined by measuring the change in absorbance at 405 nm on a SpectraMAX 340 plate reader (Molecular devices, Sunnyvale, Calif.).
(§2) 1. The inhibition constant, Ki is calculated from individual data points using the equation for a tight-binding inhibitor (See Beith, "Proteinase Inhibitors-Proceedings of 2nd Int. Res. Conference", Fritz, et al. eds, New York, p.4463-4469 (1974)):
(§3) vi /vo [((Ki '+[I]+[E]o)^2 -4 [I]o
(§4) [E]o)^1/2 (Ki '+[I]o -[E]o)]/2[E]o
(§5) where Ki ' is apparent inhibition constant; vi and vo are the inhibited and uninhibited rates, respectively; [I]o and [E]o are the total concentrations of inhibitor and enzyme, respectively.
(§6) [note: [E]o is determined by active site titration of enzyme]
(§7) The Ki values are obtained by correcting Ki ' values for the effect of substrate concentration according to: [formula]
(§8) 2. Other inhibition data (Ki >>[E]o), the Ki is calculated from using the equations for a competitive inhibitor: [formula]
Human plasma plasmin activity was determined by using Tosyl-Gly-Pro-Lys-pNAin 100 mM Tris-HCl, pH 7.4, 100 mM NaCl, 0.05% Triton X-100 (See Lottenberg, et al., Meth. Enzymol. 80, 341-361 (1981)).
(§9) The inhibition constant (Ki) of the test compounds against each proteolytic enzyme was determined according to Zitnik et al., Biochem. Biophys. Res. Commun. 232, 687-697 (1997)).

The target of test [1] is T2, Human Neutrophil elastase (Homo sapiens, UniProt P08246).
T2 construct: from tissue; host or cells: human neutrophils
T2 sequence (P08246 30-267): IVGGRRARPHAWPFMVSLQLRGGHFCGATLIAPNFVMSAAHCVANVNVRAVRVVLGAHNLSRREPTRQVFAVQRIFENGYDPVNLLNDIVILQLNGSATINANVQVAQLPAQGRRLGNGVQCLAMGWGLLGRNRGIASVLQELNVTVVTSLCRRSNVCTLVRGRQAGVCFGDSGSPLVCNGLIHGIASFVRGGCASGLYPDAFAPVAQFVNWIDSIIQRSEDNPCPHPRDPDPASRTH
As to the kind of experiment: Ki determination, human neutrophil elastase (pyroGlu-Pro-Val-pNA). Particulars: 100 mM Tris-HCl, pH 8.3, 0.96 M NaCl, 1% BSA; read-out: Experimentally Determined Ki, Elastase. As to the method: as §1, §2, §3, §4, §5, §6, §7, §8
Human Neutrophil elastase activity was determined by using pyroGlu-Pro-Val-pNA in 100 mM Tris-HCl, pH 8.3, 0.96 M NaCl, 1% BSA (See Kramps, et al. Scand. J. Clin. Lab. Invest. 43, 427-432 (1983)).
as §9

Test [2] addresses T3, Human Neutrophil Cathepsin G (Homo sapiens, UniProt P08311).
T3 construct: from tissue; host or cells: human neutrophils
T3 sequence (P08311 21-255): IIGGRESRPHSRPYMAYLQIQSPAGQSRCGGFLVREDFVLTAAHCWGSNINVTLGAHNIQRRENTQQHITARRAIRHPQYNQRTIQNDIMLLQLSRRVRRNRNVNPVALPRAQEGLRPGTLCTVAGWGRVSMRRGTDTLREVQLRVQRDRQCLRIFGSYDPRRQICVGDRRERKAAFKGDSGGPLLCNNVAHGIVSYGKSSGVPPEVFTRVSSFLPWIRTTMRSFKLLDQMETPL
The test is described as follows: Ki determination, human neutrophil cathepsin G (N-Suc-Ala-Ala-Pro-Phe-pNA). Particulars: 625 mM Tris-HCl, pH 7.5, 2.5 mM MgCl2, 0.125% Brij 35; read-out: Experimentally Determined Ki, Cathepsin G. As to the method:
as §1, §2, §3, §4, §5, §6, §7, §8
Human Neutrophil Cathepsin G activity was determined by using N-Suc-Ala-Ala-Pro-Phe-pNA in 625 mM Tris-HCl, pH 7.5, 2.5 mM MgCl2, 0.125% Brij 35 (See Groutas et al., Arch. Biochem. Biophys. 294, 144-146 (1992)).
as §9

Another test concerns the target T4, Human plasma kallikrein (Homo sapiens, UniProt P03952).
T4 construct: from tissue; host or cells: human plasma
As to the kind of experiment: Ki determination, human plasma kallikrein (H-D-Prolyl-Phe-Arg-pNA). Particulars: 50 mM Tris-HCl, pH 7.8, 200 mM NaCl, 0.05% BSA; read-out: Experimentally Determined Ki, Plasma Kallikrein. As to the method:
as §1, §2, §3, §4, §5, §6, §7, §8
I. Human Plasma and r-Tissue Kallikrein
Human plasma and r-tissue kallikrein activity were determined in 50 mM Tris-HCl, pH 7.8, 200 mM NaCl, 0.05% BSA by using H-D-Prolyl-Phe-Arg-pNA and DL-Val-Leu-Arg-pNA, respectively (See Lottenberg, et al., Meth. Enzymol. 80, 341-361 (1981)).
as §9

Another test has as its target T5, Human plasma factor Xa (Homo sapiens, UniProt P00742).
T5 construct: from tissue; host or cells: human plasma
The test is described as follows: Ki determination, human plasma factor Xa (N-Benzoyl-Ile-Glu-Gly-Arg-pNA). The following applies: 50 mM Tris-HCl, pH 7.8, 200 mM NaCl, 0.05% BSA; read-out: Experimentally Determined Ki, Factor Xa. As to the method: as §1, §2, §3, §4, §5, §6, §7, §8
Human plasma factor Xa activity was determined by using N-Benzoyl-Ile-Glu-Gly-Arg-pNA in 50 mM Tris-HCl, pH 7.8, 200 mM NaCl, 0.05% BSA (See Lottenberg, et al. Meth. Enzymol. 80, 341-361 (1981)).
as §9

T1 sequence (P00747 581-810 limits assumed): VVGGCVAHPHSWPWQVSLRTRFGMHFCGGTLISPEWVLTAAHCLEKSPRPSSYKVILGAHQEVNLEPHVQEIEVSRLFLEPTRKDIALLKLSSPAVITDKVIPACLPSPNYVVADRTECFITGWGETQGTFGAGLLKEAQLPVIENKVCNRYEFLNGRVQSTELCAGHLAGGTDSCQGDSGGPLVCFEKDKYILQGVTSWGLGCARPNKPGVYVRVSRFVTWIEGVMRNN
T1 sequence (P00747 97-580 partner limits assumed): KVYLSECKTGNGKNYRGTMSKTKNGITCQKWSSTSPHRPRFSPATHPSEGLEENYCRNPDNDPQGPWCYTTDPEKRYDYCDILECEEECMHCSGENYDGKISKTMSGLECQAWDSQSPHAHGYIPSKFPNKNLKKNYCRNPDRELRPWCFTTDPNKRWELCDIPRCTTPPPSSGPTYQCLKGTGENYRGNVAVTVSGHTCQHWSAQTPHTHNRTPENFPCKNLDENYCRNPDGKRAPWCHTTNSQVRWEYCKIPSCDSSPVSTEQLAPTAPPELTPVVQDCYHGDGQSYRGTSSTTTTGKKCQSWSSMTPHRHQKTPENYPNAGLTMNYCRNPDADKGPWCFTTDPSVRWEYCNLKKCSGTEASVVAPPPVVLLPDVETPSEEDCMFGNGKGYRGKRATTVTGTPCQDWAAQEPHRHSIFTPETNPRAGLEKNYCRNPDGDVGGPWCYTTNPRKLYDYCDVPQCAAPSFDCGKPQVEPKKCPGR
T5 sequence (P00742 235-488 limits assumed): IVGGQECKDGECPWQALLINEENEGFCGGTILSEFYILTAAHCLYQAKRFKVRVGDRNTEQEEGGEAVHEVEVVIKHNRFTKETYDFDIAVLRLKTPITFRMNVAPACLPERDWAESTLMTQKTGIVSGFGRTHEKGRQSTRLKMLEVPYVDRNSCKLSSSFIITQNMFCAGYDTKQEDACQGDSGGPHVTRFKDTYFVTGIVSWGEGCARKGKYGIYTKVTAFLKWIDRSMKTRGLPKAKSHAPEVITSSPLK
T5 sequence (P00742 41-179 partner limits assumed): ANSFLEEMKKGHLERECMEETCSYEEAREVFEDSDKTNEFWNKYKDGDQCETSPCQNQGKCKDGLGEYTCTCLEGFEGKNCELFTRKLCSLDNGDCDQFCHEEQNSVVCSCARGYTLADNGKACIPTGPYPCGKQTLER
T4 sequence (P03952 391-638 limits assumed): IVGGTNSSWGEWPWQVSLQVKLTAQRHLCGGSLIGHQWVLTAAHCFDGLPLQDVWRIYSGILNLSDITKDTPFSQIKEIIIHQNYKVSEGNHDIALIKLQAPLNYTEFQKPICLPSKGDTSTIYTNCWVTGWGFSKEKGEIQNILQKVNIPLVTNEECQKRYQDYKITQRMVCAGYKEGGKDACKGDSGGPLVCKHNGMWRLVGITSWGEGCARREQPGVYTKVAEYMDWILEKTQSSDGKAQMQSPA
T4 sequence (P03952 20-390 partner limits assumed): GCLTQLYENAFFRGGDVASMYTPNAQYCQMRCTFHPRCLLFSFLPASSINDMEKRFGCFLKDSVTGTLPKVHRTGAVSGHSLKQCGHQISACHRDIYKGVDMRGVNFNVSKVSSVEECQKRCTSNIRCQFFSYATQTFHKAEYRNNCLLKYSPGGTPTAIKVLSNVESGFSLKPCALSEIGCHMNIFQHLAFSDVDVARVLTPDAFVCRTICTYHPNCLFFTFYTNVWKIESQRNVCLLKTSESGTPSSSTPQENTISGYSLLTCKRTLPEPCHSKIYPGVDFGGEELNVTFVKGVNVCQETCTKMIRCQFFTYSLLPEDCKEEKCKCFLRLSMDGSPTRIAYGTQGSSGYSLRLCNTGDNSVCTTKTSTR

On to `N=C(N)c1cccc(C(=O)NCc2ccc(OCCOc3ccc(CNC(=O)c4cccc(C(=N)N)c4)cc3)cc2)c1` [Example 65, 1,2-Bis-{4-[(3-carbamimidoyl-benzoylamino)-methyl]-phenoxy}-ethane], for which the Ki (commonly the dissociation constant of the complex between target and ligand, obtained from inhibition or displacement) at Human plasma plasmin was 46 µM; in test [1], more than 100 µM; in test [2], more than 100 µM; at Human plasma kallikrein it was 24 µM; on Human plasma factor Xa, 2.6 µM.
As to `N=C(N)c1cccc(S(=O)(=O)NCc2ccc(OCCCCOc3ccc(CNS(=O)(=O)c4cccc(C(=N)N)c4)cc3)cc2)c1` [Example 47, 1,4-Bis-{4-[(3-carbamimidoyl-benzenesulfonylamino)-methyl]-phenoxy}-butane], the Ki on Human plasma plasmin is 0.06 µM; in test [1], more than 100 µM; in test [2], more than 100 µM; at Human plasma kallikrein, 2.5 µM; on Human plasma factor Xa, 2.9 µM.
Consider `N=C(N)c1cccc(S(=O)(=O)NCc2ccc(OCCCCCOc3ccc(CNS(=O)(=O)c4cccc(C(=N)N)c4)cc3)cc2)c1` [Example 41, 1,5-Bis-{4-[(3-carbamimidoyl-benzenesulfonylamino)-methyl]-phenoxy}-pentane], for which the Ki was 0.93 µM at Human plasma plasmin; more than 100 µM in test [1]; more than 100 µM in test [2]; 18 µM on Human plasma kallikrein; 6.4 µM at Human plasma factor Xa.
As for `N=C(N)c1ccc(C(=O)NCc2ccc(OCCCOc3ccc(CNC(=O)c4ccc(C(=N)N)cc4)cc3)cc2)cc1` [Example 62, 1,3-Bis-{4-[(4-carbamimidoyl-benzoylamino)-methyl]-phenoxy}-propane], the Ki is 11.6 µM at Human plasma plasmin; more than 100 µM in test [1]; more than 100 µM in test [2]; 2.9 µM at Human plasma kallikrein; 35 µM on Human plasma factor Xa.
Turning to `N=C(N)c1ccc2[nH]c(CC(=O)NCc3ccc(OCCCCCOc4ccc(CNC(=O)Cc5nc6cc(C(=N)N)ccc6[nH]5)cc4)cc3)nc2c1` [Example 108], the inhibition constant (Ki) at Human plasma plasmin is 1.4 µM; in test [1], more than 100 µM; in test [2], more than 100 µM; on Human plasma kallikrein, 4.3 µM; on Human plasma factor Xa, 19 µM.
Turning to `N=C(N)c1ccc2cc(C(=O)NCc3ccc(OCCOc4ccc(CNC(=O)c5ccc6cc(C(=N)N)ccc6c5)cc4)cc3)ccc2c1` [Example 100, 1,2-Bis-{4-[(6-carbamimidoylnaphthalene-2-carbonylamino)-methyl]-phenoxy}-ethane], the Ki was 0.74 µM at Human plasma plasmin; more than 100 µM in test [1]; more than 100 µM in test [2]; more than 100 µM at Human plasma kallikrein; more than 100 µM on Human plasma factor Xa.
Regarding `N=C(N)c1cccc(C(=O)NCc2ccc(OCCCOc3ccc(CNC(=O)c4cccc(C(=N)N)c4)cc3)cc2)c1` [Example 63, 1,3-Bis-{4-[(3-carbamimidoyl-benzoylamino)-methyl]-phenoxy}-propane], the Ki on Human plasma plasmin was 28 µM; in test [1], more than 100 µM; in test [2] it was more than 100 µM.
With `N=C(N)c1cccc(C(=O)NCc2ccc(OCCCCCCOc3ccc(CNC(=O)c4cccc(C(=N)N)c4)cc3)cc2)c1` [Example 57, 1,6-Bis-{4-[(3-carbamimidoyl-benzenecarbonylamino)-methyl]-phenoxy}-hexane], the Ki at Human plasma plasmin is 10.7 µM; in test [1], more than 100 µM; in test [2], more than 100 µM.
Regarding `N=C(N)c1ccc(C(=O)NCc2ccc(COCc3ccc(CNC(=O)c4ccc(C(=N)N)cc4)cc3)cc2)cc1` [Example 66, 1,3-Bis-{4-[(4-carbamimidoyl-benzenecarbonylamino)-methyl]-phenyl}-2-oxapropane], the Ki is 10.1 µM at Human plasma plasmin, more than 100 µM in test [1], 0.7 µM at Human plasma kallikrein and 25.7 µM at Human plasma factor Xa.
On to `N=C(N)c1ccc(C(=O)NCc2ccc(OCCCCCCOc3ccc(CNC(=O)c4ccc(C(=N)N)cc4)cc3)cc2)cc1` [Example 56, 1,6-Bis-{4-[(4-carbamimidoyl-benzenecarbonylamino)-methyl]-phenoxy}-hexane], for which the Ki on Human plasma plasmin was 1.6 µM; in test [1], more than 100 µM; in test [2], more than 100 µM.
